Laboratory results taken from patent publication US10669285B2, “Condensed [1,4] diazepine compounds as autotaxin (ATX) and lysophosphatidic acid (LPA) production inhibitors” (Hoffmann-La Roche Inc., priority 2014, dated 2020).

target: ATX (human His-tagged) (Homo sapiens (Human), UniProt Q13822); assay: Human ATX enzyme inhibition assay (fluorescence quenching, MR121 substrate); type: biochemical; details: inhibitory activity against ATX; 30 nM ATX, 1 μM MR121 substrate, 30° C.
Protocol: Human ATX Enzyme Inhibition Assay
ATX inhibition was measured by a fluorescence quenching assay using a specifically labeled substrate analogue (MR121 substrate). To obtain this MR121 substrate, BOC and TBS protected 6-amino-hexanoic acid (R)-3-({2-[3-(2-{2-[2-(2-amino-ethoxy)-ethoxy]-ethoxy}-ethoxy)-propionylamino]-ethoxy}-hydroxy-phosphoryloxy)-2-hydroxy-propyl ester (Ferguson et al., Org Lett 2006, 8 (10), 2023) was labeled with MR121 fluorophore (CAS 185308-24-1, 1-(3-carboxypropyl)-11-ethyl-1,2,3,4,8,9,10,11-octahydro-dipyrido[3,2-b:2′,3′-i]phenoxazin-13-ium) on the free amine of the ethanolamine side and then, after deprotection, subsequently with tryptophan on the side of the aminohexanoic acid.
Assay working solutions were made as follows:
Assay buffer (50 mM Tris-HCl, 140 mM NaCl, 5 mM KCl, 1 mM CaCl2, 1 mM MgCl2, 0.01% Triton-X-100, pH 8.0;
ATX solution: ATX (human His-tagged) stock solution (1.08 mg/mL in 20 mM bicine, pH 8.5, 0.15 M NaCl, 10% glycerol, 0.3% CHAPS, 0.02% NaN3), diluted to 1.4-2.5× final concentration in assay buffer;
MR121 substrate solution: MR121 substrate stock solution (800 μM MR121 substrate in DMSO), diluted to 2-5× final concentration in assay buffer.
Test compounds (10 mM stock in DMSO, 8 μL) were obtained in 384 well sample plates (Corning Costar #3655) and diluted with 8 μL DMSO. Row-wise serial dilutions were made by transferring 8 μL cpd solution to the next row up to […]. The compound and control solutions were mixed five times and 2 μL were transferred to 384 well assay plates (Corning Costar #3702). Then, 15 μL of 41.7 nM ATX solution was added (30 nM final concentration), mixed five times and then incubated for 15 minutes at 30° C. 10 μL of MR121 substrate solution was added (1 μM final concentration), mixed 30 times and then incubated for 15 minutes at 30° C. Fluorescence was then measured every 2 minutes for 1 hour (Perkin Elmer plate: vision multimode reader); light intensity: 2.5%; exp. time: 1.4 sec, Filter: Fluo_630/690 nm) and IC50 values were calculated from these readouts.

SMILES	IC50 [µM]
O=C(c1cc(OCC2CCOCC2)nc(C2CC2)c1)N1CCc2cc(C(=O)N3CCc4[nH]nnc4C3)nn2CC1 [Example 24, (6-(2-cyclopropyl-6-((tetrahydro-2H-pyran-4-yl)methoxy)isonicotinoyl)-5,6,7,8-tetrahydro-4H-pyrazolo[1,5-d][1,4]diazepin-2-yl)(6,7-dihydro-1H-[1,2,3]triazolo[4,5-c]pyridin-5(4H)-yl)methanone]	0.009
COc1ccc(CCC(=O)N2CCc3cc(C(=O)N4CCc5[nH]nnc5C4)nn3CC2)cc1 [Example 19, 3-(4-methoxyphenyl)-1-[2-(1,4,6,7-tetrahydrotriazolo[4,5-c]pyridine-5-carbonyl)-4,5,7,8-tetrahydropyrazolo[1,5-d][1,4]diazepin-6-yl]propan-1-one]	0.151
O=C(CCc1ccc(OC(F)F)c(F)c1)N1CCc2cc(C(=O)N3CCc4[nH]nnc4C3)nn2CC1 [Example 26, 3-[4-(difluoromethoxy)-3-fluorophenyl]-1-[2-(1,4,6,7-tetrahydrotriazolo[4,5-c]pyridine-5-carbonyl)-4,5,7,8-tetrahydropyrazolo[1,5-d][1,4]diazepin-6-yl]propan-1-one]	0.016
O=C(CCc1ccc(OC(F)(F)F)cc1)N1CCc2cc(C(=O)N3CCc4[nH]nnc4C3)nn2CC1 [Example 14, 1-[2-(1,4,6,7-tetrahydrotriazolo[4,5-c]pyridine-5-carbonyl)-4,5,7,8-tetrahydropyrazolo[1,5-d][1,4]diazepin-6-yl]-3-[4-(trifluoromethoxy)phenyl]propan-1-one]	0.014
CC(C)(C)C(=O)Nc1cc(C#N)ccc1COC(=O)N1CCc2nc(C(=O)N3CCc4[nH]nnc4C3)nn2CC1 [Example 12, [4-Cyano-2-(2,2-dimethylpropanoylamino)phenyl]methyl 2-(1,4,6,7-tetrahydrotriazolo[4,5-c]pyridine-5-carbonyl)-5,6,8,9-tetrahydro-[1,2,4]triazolo[1,5-d][1,4]diazepine-7-carboxylate]	0.067
O=C(OCc1ccc(OC(F)F)c(F)c1)N1CCc2cc(C(=O)N3CCc4[nH]nnc4C3)nn2CC1 [Example 31, 4-(difluoromethoxy)-3-fluorobenzyl 2-(4,5,6,7-tetrahydro-1H-[1,2,3]triazolo[4,5-c]pyridine-5-carbonyl)-7,8-dihydro-4H-pyrazolo[1,5-d][1,4]diazepine-6(5H)-carboxylate]	0.022
O=C(CCc1ccc(OC(F)(F)F)c(Cl)c1)N1CCc2nc(C(=O)N3CCc4[nH]nnc4C3)nn2CC1 [Example 23, 3-[3-chloro-4-(trifluoromethoxy)phenyl]-1-[2-(1,4,6,7-tetrahydrotriazolo[4,5-c]pyridine-5-carbonyl)-5,6,8,9-tetrahydro-[1,2,4]triazolo[1,5-d][1,4]diazepin-7-yl]propan-1-one]	0.05
O=C(CCc1ccc(OC(F)(F)F)c(F)c1)N1CCc2cc(C(=O)N3CCc4[nH]nnc4C3)nn2CC1 [Example 18, 3-[3-fluoro-4-(trifluoromethoxy)phenyl]-1-[2-(1,4,6,7-tetrahydrotriazolo[4,5-c]pyridine-5-carbonyl)-4,5,7,8-tetrahydropyrazolo[1,5-d][1,4]diazepin-6-yl]propan-1-one]	0.013
O=C(OCc1cccc(F)c1)N1CCc2cc(C(=O)N3CCc4[nH]nnc4C3)nn2CC1 [Example 29, 3-fluorobenzyl 2-(4,5,6,7-tetrahydro-1H-[1,2,3]triazolo[4,5-c]pyridine-5-carbonyl)-7,8-dihydro-4H-pyrazolo[1,5-d][1,4]diazepine-6(5H)-carboxylate]	0.038
N#Cc1ccc(COC(=O)N2CCc3cc(C(=O)N4CCc5[nH]nnc5C4)nn3CC2)c(F)c1 [Example 8, 4-Cyano-2-fluorobenzyl 2-(4,5,6,7-tetrahydro-1H-[1,2,3]triazolo[4,5-c]pyridine-5-carbonyl)-7,8-dihydro-4H-pyrazolo[1,5-d][1,4]diazepine-6(5H)-carboxylate]	0.06
CC(C)(C)C(=O)Nc1cc(C#N)ccc1COC(=O)N1CCc2cc(C(=O)N3CCc4[nH]nnc4C3)nn2CC1 [Example 10, [4-Cyano-2-(2,2-dimethylpropanoylamino)phenyl]methyl 2-(1,4,6,7-tetrahydrotriazolo[4,5-c]pyridine-5-carbonyl)-4,5,7,8-tetrahydropyrazolo[1,5-d][1,4]diazepine-6-carboxylate]	0.018
O=C(OCc1ccc(OC(F)(F)F)c(Cl)c1)N1CCc2nc(C(=O)N3CCc4[nH]nnc4C3)cn2CC1 [Example 42, [3-chloro-4-(trifluoromethoxy)phenyl]methyl 2-(1,4,6,7-tetrahydrotriazolo[4,5-c]pyridine-5-carbonyl)-5,6,8,9-tetrahydroimidazo[1,2-d][1,4]diazepine-7-carboxylate]	0.007
O=C(CCc1ccc(OC(F)(F)F)c(F)c1)N1CCc2nc(C(=O)N3CCc4[nH]nnc4C3)nn2CC1 [Example 21, 3-[3-fluoro-4-(trifluoromethoxy)phenyl]-1-[2-(1,4,6,7-tetrahydrotriazolo[4,5-c]pyridine-5-carbonyl)-5,6,8,9-tetrahydro-[1,2,4]triazolo[1,5-d][1,4]diazepin-7-yl]propan-1-one]	0.017
O=C(OCc1ccc(OC(F)(F)F)cc1F)N1CCc2cc(C(=O)N3CCc4[nH]nnc4C3)nn2CC1 [Example 4, 2-Fluoro-4-(trifluoromethoxy)benzyl 2-(4,5,6,7-tetrahydro-1H-[1,2,3]triazolo[4,5-c]pyridine-5-carbonyl)-7,8-dihydro-4H-pyrazolo[1,5-d][1,4]diazepine-6(5H)-carboxylate]	0.007
O=C(CCc1ccc(OC(F)(F)F)c(Cl)c1)N1CCc2cc(C(=O)N3CCc4[nH]nnc4C3)nn2CC1 [Example 22, 3-[3-chloro-4-(trifluoromethoxy)phenyl]-1-[2-(1,4,6,7-tetrahydrotriazolo[4,5-c]pyridine-5-carbonyl)-4,5,7,8-tetrahydropyrazolo[1,5-d][1,4]diazepin-6-yl]propan-1-one]	0.018
COc1ccc(COC(=O)N2CCc3cc(C(=O)N4CCc5[nH]nnc5C4)nn3CC2)cc1 [Example 27, 4-methoxybenzyl 2-(4,5,6,7-tetrahydro-1H-[1,2,3]triazolo[4,5-c]pyridine-5-carbonyl)-7,8-dihydro-4H-pyrazolo[1,5-d][1,4]diazepine-6(5H)-carboxylate]	0.052
N#Cc1ccc(OCC(=O)N2CCc3cc(C(=O)N4CCc5[nH]nnc5C4)nn3CC2)c(C2CC2)c1 [Example 15, 3-Cyclopropyl-4-(2-oxo-2-(2-(4,5,6,7-tetrahydro-1H-[1,2,3]triazolo[4,5-c]pyridine-5-carbonyl)-7,8-dihydro-4H-pyrazolo[1,5-d][1,4]diazepin-6(5H)-yl)ethoxy)benzonitrile]	0.011
O=C(/C=C/c1ccc(OC(F)F)c(F)c1)N1CCc2cc(C(=O)N3CCc4[nH]nnc4C3)nn2CC1 [Example 25, (E)-3-[4-(difluoromethoxy)-3-fluorophenyl]-1-[2-(1,4,6,7-tetrahydrotriazolo[4,5-c]pyridine-5-carbonyl)-4,5,7,8-tetrahydropyrazolo[1,5-d][1,4]diazepin-6-yl]prop-2-en-1-one]	0.007
N#Cc1ccc(COC(=O)N2CCc3cc(C(=O)N4CCc5[nH]nnc5C4)nn3CC2)cc1 [Example 6, 4-Cyanobenzyl 2-(4,5,6,7-tetrahydro-1H-[1,2,3]triazolo[4,5-c]pyridine-5-carbonyl)-7,8-dihydro-4H-pyrazolo[1,5-d][1,4]diazepine-6(5H)-carboxylate]	0.004
